Data taken from patent US20190062709A1, “METHODS AND COMPOSITIONS FOR MAINTENANCE OF HEMATOPOIETIC STEM CELLS WITH PRESERVATION OF SELF-RENEWAL CAPACITY” (The Trustees of Columbia University in the City of New York, priority 2017, published 2019).
Read-outs that look alike come from different tables or passages of the source.

How the values were obtained:
HSCs [1] = assay: Competitive transplantation of cultured HSCs into irradiated recipient mice (donor chimerism); assay type: in vivo, mouse; details: 10% of culture transplanted
Procedure: Long term LT-HSCs cultures were carried out using Ca^2+-free DMEM (U.S. Biologicals) reconstituted with 4.5 g/L glucose and 1.1 g/L sodium bicarbonate at pH 7.4. Complete media was prepared with Ca^2+-free DMEM supplemented with 1× StemPro34 SFM (Invitrogen), 10 mM HEPES, 200 ng/mL of recombinant m-SCF and 30 ng/mL m-TPO (Peptrotech, Rocky Hill, N.J.). Media of various calcium concentrations was prepared as serial dilutions from stock complete media at 2 mM. Cultures were initiated with 3000-4000 purified HSCs (LSK+CD48−F1t3−CD150+) and cultured in round bottom 96 well plates with 150 uL of media in 5% O2 at 37° C. Half of the media volume was changed every 3 days and split 1:2 every 7 days. Cultures were counted at the time of phenotypic flow cytometric percentage analysis to determine phenotypic HSC counts at the end of culture. Based on calculations, HSC yields were expressed as phenotypic HSC at the end of culture divided by phenotypic HSC count at the start of culture.
All transplant experiments were initiated with LT-HSC cultures consisting of CD45.1 donor HSCs. […]
To test HSC function, irradiated recipient mice were competitively transplanted with 10% of the cultures, either at initiation or after 2 weeks of culture, and analyzed 15 weeks after transplantation. […] Donor contribution correlated with calculated phenotypic HSC cell dose transplanted (FIG. 2D). […]

[2] = 37° C., assumed based on previous studies; read-out: Indo-1 dissociation constant (Kd); cited from earlier work
HSCs [3] = assay: Calcium concentration of HSCs treated with metabolic inhibitors; assay type: cell-based, mouse
[4] = tested on: human progenitor/stem cells; details: literature report; cited from earlier work
murine AHR = molecular target: T1, murine AHR (Mus musculus, UniProt P30561); details: literature report; cited from earlier work
T1 sequence (P30561 10-848): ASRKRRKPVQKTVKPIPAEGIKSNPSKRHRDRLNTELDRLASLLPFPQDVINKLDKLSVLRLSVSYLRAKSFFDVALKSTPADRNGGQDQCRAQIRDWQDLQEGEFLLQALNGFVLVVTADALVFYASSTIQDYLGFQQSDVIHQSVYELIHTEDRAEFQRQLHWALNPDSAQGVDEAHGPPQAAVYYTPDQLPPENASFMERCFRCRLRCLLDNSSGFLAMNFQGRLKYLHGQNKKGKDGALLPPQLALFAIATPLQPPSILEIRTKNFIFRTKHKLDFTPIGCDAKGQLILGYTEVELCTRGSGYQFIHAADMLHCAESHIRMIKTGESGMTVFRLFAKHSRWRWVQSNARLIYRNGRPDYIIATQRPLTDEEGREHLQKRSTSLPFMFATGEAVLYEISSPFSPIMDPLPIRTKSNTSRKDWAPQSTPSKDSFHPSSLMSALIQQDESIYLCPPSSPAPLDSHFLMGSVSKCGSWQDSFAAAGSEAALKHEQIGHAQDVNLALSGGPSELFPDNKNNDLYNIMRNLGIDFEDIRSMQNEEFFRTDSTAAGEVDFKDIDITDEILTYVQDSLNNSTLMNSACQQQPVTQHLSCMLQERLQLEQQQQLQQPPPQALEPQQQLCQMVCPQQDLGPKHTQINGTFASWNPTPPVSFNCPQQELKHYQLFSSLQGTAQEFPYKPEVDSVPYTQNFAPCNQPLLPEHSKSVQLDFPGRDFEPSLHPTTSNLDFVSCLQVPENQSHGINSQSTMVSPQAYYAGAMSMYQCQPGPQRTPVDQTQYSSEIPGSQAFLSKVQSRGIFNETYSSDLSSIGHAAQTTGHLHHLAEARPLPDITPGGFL

murine HSCs = details: literature report; cited from earlier work
[5] = purified HSCs treated 15 min, compared to DMSO control

In the case of O=C(O)/C(S)=C/c1ccc(I)cc1 [PD150606, (Z)-3-(4-Iodophenyl)-2-mercapto-2-propenoic acid], the competitive repopulation capacity (HSCs [1]; PD150606 25 μM added to high calcium (2.0 mM) 2-week HSC cultures) is reported as “increased competitive repopulation capacity” and the competitive repopulation capacity (HSCs [1]; PD150606 25 μM added to low calcium (0.02 mM) 2-week HSC cultures) is reported as “no effect”.

For Cc1ccc(N(CC(=O)O)CC(=O)O)c(OCCOc2cc(-c3cc4ccc(C(=O)O)cc4[nH]3)ccc2N(CC(=O)O)CC(=O)O)c1 [Indo-1], the Kd [2] is given as 237 nM.

With CC[C@H]1/C=C/C=C/C[C@@H](C)[C@H](O)[C@@](C)(O)C(=O)[C@@H](C)[C@H](O)[C@@H](C)C(=O)[C@@H](C)[C@H](O)[C@@H](C)/C=C/C(=O)O[C@@H]2[C@H](C)[C@H](CC1)O[C@]1(CC[C@H](C)[C@H](C[C@@H](C)O)O1)[C@H]2C [oligomycin] the “Cai^2+ of HSCs” value (HSCs [3]; [5]) was “not inhibition of mitochondrial respiration increased”.

In the case of O=C(O)CI [iodoacetic acid], the “Cai^2+ of HSCs” value (HSCs [3]) is reported as “increased”.

For N#CC(C#N)=NNc1ccc(OC(F)(F)F)cc1 [FCCP], the “Cai^2+ of HSCs at higher doses” value (HSCs [3]; higher doses of the mitochondrial inhibitors, 15 min) was “further reduction” and the “Cai^2+ of HSCs” value (HSCs [3]; [5]) was “not inhibition of mitochondrial respiration increased”.

For CC(C)n1cnc2c(NCCc3ccc(O)cc3)nc(-c3csc4ccccc34)nc21 [SR1, stemregenin 1], the “expansion of human progenitor/stem cells capable of repopulating irradiated immunodeficient mice” value [4] is given as “led to expansion”, the “inhibition of murine AHR” value (murine AHR) is given as “does not inhibit” and the “expansion of murine HSCs” value (murine HSCs) is given as “does not lead to expansion”.
